Experimental data reported in patent publication US10851165B2, “Antibody molecules to PD-L1 and methods of treating cancer” (Novartis AG, priority 2014, dated 2020).

How the values were obtained:
[1] = test system: PD-L1 (CD274) mRNA in LOXIMV1 tumors; experiment: PD-L1 mRNA by TaqMan RT PCR in LOXIMV1 tumor xenograft model; assay type: in vivo, human; conditions: tumor xenograft model bearing LOXIMV1 (BRAF mutant melanoma)
Procedure: (§1) Isolated RNA was frozen at −80° C.
(§2) Each sample was run in triplicate.

[2] = test system: PD-L1 (CD274) in EBC-1 cells; experiment: PD-L1 surface expression by flow cytometry in EBC-1 cells in vitro; assay type: cell-based, human; conditions: EBC-1 cells (NSCLC with cMET amplification) in vitro; 10 nM, 100 nM, 1000 nM; 24, 48 and 72 hours; vs DMSO
Procedure: EBC-1 cells are non-small cell lung cancer cells with a cMET amplification.
PD-L1 (CD274) expression was analyzed in cancer cell lines treated with Compound A17. Cells were obtained from ATCC and cultured in vitro following ATCC directions. The cell lines used were previously characterized by the Cancer Cell Line Encyclopedia Project (http://www.broadinstitute.org/ccle/home).
Cells plated in six-well culture plates were treated with the Compound A17 at different concentrations (10 nM, 100 nM, and 1000 nM) for 24, 48 and 72 hours. Equal amount of vehicle (DMSO) was used as a control. Cells were washed with PBS and then harvested using a cell scraper.
For each reaction, 0.5-1×10^6 cells were stained with 20 μL of anti-human monoclonal PD-L1-PE antibody, clone M1H1 (BD) for 30-60 minutes at 4° C. Cells were washed twice and data was acquired using a Canto II with FACSDiva software (BD Bioscience). Data analysis was performed using FlowJo software (Tree Star). Mean fluorescence intensity (MFI) was determined by gating on single cells. Unstained cells were used as a gating control.

[3] = test system: PD-L1 (CD274) mRNA in Hs.746.T tumor; experiment: PD-L1 mRNA by TaqMan RT PCR in Hs.746.T tumor xenograft; assay type: in vivo, human; conditions: Hs.746.T tumor (gastric cancer cell with cMET amplification & mutation) xenograft
Procedure: Hs.746.T cells are gastric cancer cells with a c-MET amplification and a c-MET mutation.
as §1, §2

[4] = test system: PD-L1 (CD274) mRNA in HEYA8 tumors; experiment: PD-L1 mRNA by TaqMan RT PCR in HEYA8 tumor xenograft model; assay type: in vivo, human; conditions: tumor xenograft model bearing HEYA8 (KRAF mutant ovarian cancer)
Procedure: as §1, §2

[5] = test system: PD-L1 (CD274) mRNA in H3122 cells; experiment: PD-L1 mRNA by TaqMan RT PCR in H3122 cells in vitro; assay type: cell-based, human; conditions: H3122 (NSCLC with ALK translocation) in vitro
Procedure: H3122 cells are non-small cell lung cancer (NSCLC) cells with an ALK translocation.
as §1, §2

[6] = test system: PD-L1 (CD274) mRNA in UKE-1 tumors; experiment: PD-L1 mRNA by TaqMan RT PCR in UKE-1 tumor xenograft model; conditions: tumor xenograft model bearing UKE-1 (MPN line with JAK2V617F mutation)
[7] = target: T1, huPD-L1 (Homo sapiens, UniProt Q9NZQ7); experiment: FACS binding of chimeric and humanized BAP058 mAbs to 300.19 cells expressing huPD-L1; conditions: 300.19 cell line expressing huPD-L1 on the cell surface
T1 construct: expressed in transfected cells; host or cells: 300.19 cells
T1 sequence (Q9NZQ7 19-290): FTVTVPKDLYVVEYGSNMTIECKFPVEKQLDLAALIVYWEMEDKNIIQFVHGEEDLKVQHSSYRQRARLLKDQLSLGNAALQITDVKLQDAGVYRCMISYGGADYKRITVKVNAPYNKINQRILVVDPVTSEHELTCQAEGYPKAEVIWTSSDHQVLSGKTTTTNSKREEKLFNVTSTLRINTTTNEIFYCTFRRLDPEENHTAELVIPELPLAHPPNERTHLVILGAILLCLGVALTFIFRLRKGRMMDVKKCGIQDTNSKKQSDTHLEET
Procedure: FIG. 3 is a bar graph showing the results of FACS binding analysis for the seventeen humanized BAP058 clones (BAP058-hum01 to BAP058-hum17). The antibody concentrations are 200, 100, 50, 25 and 12.5 ng/ml from the leftmost bar to the rightmost bar for each tested mAb.
Humanization of BAP058 was performed using a combinatorial library of human germline variable region frameworks (FWs). The technology entails transferring the murine CDRs in frame to a library of human variable regions (VRs) that had been constructed by randomly combining human germ line FW1, FW2 and FW3 sequences. Only one FW4 sequence was used, which is […] (SEQ ID NO: 154) for the heavy chain (HC) (Kabat human HC subgroup I, No. 21) and […] (SEQ ID NO: 186) for the light chain (LC) (Kabat human κ subgroup I, No. 5). The library of VR sequences was fused to human constant region (CR) sequences, human IgG4 (S228P) of HC and human κ CR of LC, and the resulting library of whole IgG mAbs was expressed in CHO cells for screening. Screening was performed with tissue culture supernatants measuring binding avidity on antigen-expressing cells in a whole cell ELISA format or on FACS.
Binding of the recombinant clone to human PD-L1 was tested using the 300.19 cell line expressing huPD-L1 on the cell surface and FACS analysis.

Molecule: COC(=O)N[C@@H](C)CNc1nccc(-c2cn(C(C)C)nc2-c2cc(Cl)cc(NS(C)(=O)=O)c2F)n1 [Compound A29, Encorafenib]
- PD-L1 mRNA [1]: Downregulation of PD-L1 mRNA

Molecule: CNC(=O)c1ccc(-c2cnc3ncc(Cc4ccc5ncccc5c4)n3n2)cc1F [Compound A17, 2-fluoro-N-methyl-4-(7-(quinolin-6-ylmethyl)imidazo[1,2-b][1,2,4]triazin-2-yl)benzamide]
- surface expression of PD-L1 (flow cytometry) [2]: significant downregulation of surface expression of PD-L1
- PD-L1 expression (mRNA) [3]: Inhibition of PD-L1 expression (mRNA)

Molecule: Cn1cnc2c(F)c(Nc3ccc(Br)cc3F)c(C(=O)NOCCO)cc21 [Compound A34, Binimetinib]
- PD-L1 mRNA [4]: Downregulation of PD-L1 mRNA

Molecule: Cc1cc(Nc2ncc(Cl)c(Nc3ccccc3S(=O)(=O)C(C)C)n2)c(OC(C)C)cc1C1CCNCC1 [Compound A23, ceritinib]
- PD-L1 mRNA [5]: Inhibition of PD-L1 mRNA

Molecule: N#CC[C@H](C1CCCC1)n1cc(-c2ncnc3[nH]ccc23)cn1 [Compound A18, Ruxolitinib Phosphate]
- PD-L1 mRNA [6]: Downregulation of PD-L1 mRNA

B1: BAP058-chi: chimeric mAb: murine VR, human IgG4 (S228P), human κ (antibody, V domains shown)
VH: EVQLQQSGAELVKPGASVKLSCKASGYTFTSYWMYWVKQGPGRGLEWIGRIDPNSGSTKYNEKFKNKATLTVDKSSSTAYMQLSSLTSEDSAVYYCARDYRKGLYAMDYWGQGTTVTVSS
VL: DIMMTQSHKFMSTSVGDRVSITCKASQDVGTAVAWYQQKPGQSPKLLIYWASTRHTGVPDRFTGSGSGTDFTLTISNVQSEDLADYFCQQYNSYPLTFGQGTKVEIK
- Binding to human PD-L1 (FACS analysis) [7]: bound well to the antigen
